Assay results as given in patent publication US20230017045A1, “PYRIDINE AND PYRIMIDINE CARBOXYLATE HERBICIDES AND METHODS OF USE THEREOF” (Dow AgroSciences LLC, priority 2017, published 2023).

What follows are compounds tested on test plant species (assay: Post-emergent herbicidal activity test (greenhouse, foliar spray, visual growth reduction)). Details: post-emergence, 336 h, ALOMY: blackgrass (Alopecurus myosuroides), 140 g ai/ha, 14 days after application, read-out: Visual Growth Reduction (%) 14 Days After Application, ALOMY.
Type: in vivo
Description: Post-emergent Test: Seeds or nutlets of the desired test plant species were planted in Sun Gro Metro-Mix® 360 planting mixture, which typically has a pH of 6.0 to 6.8 and an organic matter content of about 30 percent, in plastic pots with a surface area of 64 square centimeters. In some aspects, to ensure good germination and healthy plants, a fungicide treatment and/or other chemical or physical treatment was applied. The plants were grown for 7-21 d in a greenhouse with an approximate 15 h photoperiod which was maintained at 23-29° C. during the day and 22-28° C. during the night. Nutrients and water were added on a regular basis and supplemental lighting was provided with overhead metal halide 1000-Watt lamps as necessary. Plants were used for testing when they reached the first or second true leaf stage. A weighed amount, determined by the highest rate to be tested, of each test compound was placed in a 25 mL glass vial and was dissolved in 4 mL of a 97:3 v/v mixture of acetone and DMSO to obtain concentrated stock solutions. […] The concentrated stock solutions obtained were diluted with 20 mL of an aqueous mixture containing acetone, water, isopropyl alcohol, DMSO, […] crop oil concentrate, and X-77 surfactant in a 48.5:39:10:1.5:1.0:0.02 v/v ratio to obtain spray solutions containing the application rate. Compound requirements are based upon a 12 mL application volume at a rate of 187 liters per hectare (L/ha). Formulated compounds were applied to the plant material with an overhead Mandel track sprayer equipped with […] nozzles calibrated to deliver 187 L/ha over an application area of 0.64 square meters at a spray height of 18 inches (43 cm) above the average plant canopy height. Control plants were sprayed in the same manner with the solvent blank. The treated plants and control plants were placed in a greenhouse as described above and watered by subirrigation to prevent wash-off of the test compounds. After 14 d, the condition of the test plants as compared with that of the nontreated and control plants was determined visually and scored on a scale of 0 to 100 percent where 0 corresponds to no injury and 100 corresponds to complete control. In the reporting of the results, Table A: Percent Growth Reduction Conversion Table was used.
Work on `N#Cc1cc(C(F)(F)F)cc(Cl)c1-c1ccc(Cl)c(C(=O)O)n1` [F162, 3-Chloro-6-(2-chloro-6-cyano-4-(trifluoromethyl)phenyl)picolinic acid] yielded a pest or weed control at 140 g/ha of 0 to 29%.

Same assay, conditions: post-emergence, 336 h, AMARE: redroot pigweed (Amaranthus retroflexus), 140 g ai/ha, 14 days after application, read-out: Visual Growth Reduction (%) 14 Days After Application, AMARE
`N#Cc1cc(C(F)(F)F)cc(Cl)c1-c1ccc(Cl)c(C(=O)O)n1` [F162, 3-Chloro-6-(2-chloro-6-cyano-4-(trifluoromethyl)phenyl)picolinic acid] gave a pest or weed control at 140 g/ha of 95 to 100%.

Same assay, conditions: post-emergence, 336 h, AVEFA: wild oat (Avena fatua), 140 g ai/ha, 14 days after application, read-out: Visual Growth Reduction (%) 14 Days After Application, AVEFA
`N#Cc1cc(C(F)(F)F)cc(Cl)c1-c1ccc(Cl)c(C(=O)O)n1` [F162, 3-Chloro-6-(2-chloro-6-cyano-4-(trifluoromethyl)phenyl)picolinic acid] showed a pest or weed control at 140 g/ha of 30 to 44%.

Same assay, conditions: post-emergence, 336 h, CHEAL: lambsquarters (Chenopodium album), 140 g ai/ha, 14 days after application, read-out: Visual Growth Reduction (%) 14 Days After Application, CHEAL
`N#Cc1cc(C(F)(F)F)cc(Cl)c1-c1ccc(Cl)c(C(=O)O)n1` [F162, 3-Chloro-6-(2-chloro-6-cyano-4-(trifluoromethyl)phenyl)picolinic acid] was tested, and the pest or weed control at 140 g/ha was 95 to 100%.

Same assay, conditions: post-emergence, 336 h, CIRAR: canada thistle (Cirsium arvense), 140 g ai/ha, 14 days after application, read-out: Visual Growth Reduction (%) 14 Days After Application, CIRAR
For `N#Cc1cc(C(F)(F)F)cc(Cl)c1-c1ccc(Cl)c(C(=O)O)n1` [F162, 3-Chloro-6-(2-chloro-6-cyano-4-(trifluoromethyl)phenyl)picolinic acid], the pest or weed control at 140 g/ha was 85 to 94%.

Same assay, conditions: post-emergence, 336 h, CYPES: yellow nutsedge (Cyperus esculentus), 140 g ai/ha, 14 days after application, read-out: Visual Growth Reduction (%) 14 Days After Application, CYPES
With `N#Cc1cc(C(F)(F)F)cc(Cl)c1-c1ccc(Cl)c(C(=O)O)n1` [F162, 3-Chloro-6-(2-chloro-6-cyano-4-(trifluoromethyl)phenyl)picolinic acid] the pest or weed control at 140 g/ha was 0 to 29%.

Same assay, conditions: post-emergence, 336 h, DIGSA: crabgrass (Digitaria sanguinalis), 140 g ai/ha, 14 days after application, read-out: Visual Growth Reduction (%) 14 Days After Application, DIGSA
`N#Cc1cc(C(F)(F)F)cc(Cl)c1-c1ccc(Cl)c(C(=O)O)n1` [F162, 3-Chloro-6-(2-chloro-6-cyano-4-(trifluoromethyl)phenyl)picolinic acid] was tested, and the pest or weed control at 140 g/ha was 75 to 84%.

Same assay, conditions: post-emergence, 336 h, ECHCG: barnyardgrass (Echinochloa crus-galli), 140 g ai/ha, 14 days after application, read-out: Visual Growth Reduction (%) 14 Days After Application, ECHCG
`COC(=O)c1nc(-c2ccc(C3(C#N)CC3)cc2Cl)c(Cl)cc1Cl` [F238, Methyl 3,5-dichloro-6-(2-chloro-4-(1-cyanocyclopropyl)phenyl)picolinate] gave a pest or weed control at 140 g/ha of 0 to 29%. In the case of `N#Cc1cc(C(F)(F)F)cc(Cl)c1-c1ccc(Cl)c(C(=O)O)n1` [F162, 3-Chloro-6-(2-chloro-6-cyano-4-(trifluoromethyl)phenyl)picolinic acid], the pest or weed control at 140 g/ha is reported as 95 to 100%.

Same assay, conditions: post-emergence, 336 h, IPOHE: ivy-leaf morning glory (Ipomoea hederacea), 140 g ai/ha, 14 days after application, read-out: Visual Growth Reduction (%) 14 Days After Application, IPOHE
In the case of `COC(=O)c1nc(-c2ccc(C3(C#N)CC3)cc2Cl)c(Cl)cc1Cl` [F238, Methyl 3,5-dichloro-6-(2-chloro-4-(1-cyanocyclopropyl)phenyl)picolinate], the pest or weed control at 140 g/ha is reported as 75 to 84%. With `N#Cc1cc(C(F)(F)F)cc(Cl)c1-c1ccc(Cl)c(C(=O)O)n1` [F162, 3-Chloro-6-(2-chloro-6-cyano-4-(trifluoromethyl)phenyl)picolinic acid] the pest or weed control at 140 g/ha was 95 to 100%.

Same assay, conditions: post-emergence, 336 h, KCHSC: kochia (Bassia scoparia), 140 g ai/ha, 14 days after application, read-out: Visual Growth Reduction (%) 14 Days After Application, KCHSC
Compound `COC(=O)c1nc(-c2ccc(C3(C#N)CC3)cc2Cl)c(Cl)cc1Cl` [F238, Methyl 3,5-dichloro-6-(2-chloro-4-(1-cyanocyclopropyl)phenyl)picolinate] has a pest or weed control at 140 g/ha of 0 to 29%. `N#Cc1cc(C(F)(F)F)cc(Cl)c1-c1ccc(Cl)c(C(=O)O)n1` [F162, 3-Chloro-6-(2-chloro-6-cyano-4-(trifluoromethyl)phenyl)picolinic acid] gave a pest or weed control at 140 g/ha of 95 to 100%.

Same assay, conditions: post-emergence, 336 h, ORYSA: rice (Oryza sativa), 140 g ai/ha, 14 days after application, read-out: Visual Growth Reduction (%) 14 Days After Application, ORYSA
`COC(=O)c1nc(-c2ccc(C3(C#N)CC3)cc2Cl)c(Cl)cc1Cl` [F238, Methyl 3,5-dichloro-6-(2-chloro-4-(1-cyanocyclopropyl)phenyl)picolinate] gave a pest or weed control at 140 g/ha of 0 to 29%. `N#Cc1cc(C(F)(F)F)cc(Cl)c1-c1ccc(Cl)c(C(=O)O)n1` [F162, 3-Chloro-6-(2-chloro-6-cyano-4-(trifluoromethyl)phenyl)picolinic acid] gave a pest or weed control at 140 g/ha of 0 to 29%.

Same assay, conditions: post-emergence, 336 h, SETFA: giant foxtail (Setaria faberi), 140 g ai/ha, 14 days after application, read-out: Visual Growth Reduction (%) 14 Days After Application, SETFA
`COC(=O)c1nc(-c2ccc(C3(C#N)CC3)cc2Cl)c(Cl)cc1Cl` [F238, Methyl 3,5-dichloro-6-(2-chloro-4-(1-cyanocyclopropyl)phenyl)picolinate] showed a pest or weed control at 140 g/ha of 45 to 59%. `N#Cc1cc(C(F)(F)F)cc(Cl)c1-c1ccc(Cl)c(C(=O)O)n1` [F162, 3-Chloro-6-(2-chloro-6-cyano-4-(trifluoromethyl)phenyl)picolinic acid] showed a pest or weed control at 140 g/ha of 85 to 94%.

Same assay, conditions: post-emergence, 336 h, SORVU: grain sorghum (Sorghum vulgare), 140 g ai/ha, 14 days after application, read-out: Visual Growth Reduction (%) 14 Days After Application, SORVU
`COC(=O)c1nc(-c2ccc(C3(C#N)CC3)cc2Cl)c(Cl)cc1Cl` [F238, Methyl 3,5-dichloro-6-(2-chloro-4-(1-cyanocyclopropyl)phenyl)picolinate] was tested, and the pest or weed control at 140 g/ha was 60 to 74%. With `N#Cc1cc(C(F)(F)F)cc(Cl)c1-c1ccc(Cl)c(C(=O)O)n1` [F162, 3-Chloro-6-(2-chloro-6-cyano-4-(trifluoromethyl)phenyl)picolinic acid] the pest or weed control at 140 g/ha was 60 to 74%.

Same assay, conditions: post-emergence, 336 h, STEME: common chickweed (Stellaria media), 140 g ai/ha, 14 days after application, read-out: Visual Growth Reduction (%) 14 Days After Application, STEME
In the case of `COC(=O)c1nc(-c2ccc(C3(C#N)CC3)cc2Cl)c(Cl)cc1Cl` [F238, Methyl 3,5-dichloro-6-(2-chloro-4-(1-cyanocyclopropyl)phenyl)picolinate], the pest or weed control at 140 g/ha is reported as 0 to 29%. `N#Cc1cc(C(F)(F)F)cc(Cl)c1-c1ccc(Cl)c(C(=O)O)n1` [F162, 3-Chloro-6-(2-chloro-6-cyano-4-(trifluoromethyl)phenyl)picolinic acid] gave a pest or weed control at 140 g/ha of 0 to 29%.

Same assay, conditions: post-emergence, 336 h, TRZAS: wheat, spring (Triticum aestivum), 140 g ai/ha, 14 days after application, read-out: Visual Growth Reduction (%) 14 Days After Application, TRZAS
For `COC(=O)c1nc(-c2ccc(C3(C#N)CC3)cc2Cl)c(Cl)cc1Cl` [F238, Methyl 3,5-dichloro-6-(2-chloro-4-(1-cyanocyclopropyl)phenyl)picolinate], the pest or weed control at 140 g/ha was 0 to 29%. Compound `N#Cc1cc(C(F)(F)F)cc(Cl)c1-c1ccc(Cl)c(C(=O)O)n1` [F162, 3-Chloro-6-(2-chloro-6-cyano-4-(trifluoromethyl)phenyl)picolinic acid] has a pest or weed control at 140 g/ha of 45 to 59%.

Same assay, conditions: post-emergence, 336 h, blackgrass (Alopecurus myosuroides), 14 Days After Application, 140 g ai/ha, read-out: Visual Growth Reduction (%) ALOMY
Compound `COC(=O)c1nc(-c2ccc(C3(C#N)CC3)cc2Cl)c(Cl)cc1Cl` [F238, Methyl 3,5-dichloro-6-(2-chloro-4-(1-cyanocyclopropyl)phenyl)picolinate] has a pest or weed control at 140 g/ha of 0 to 29%.

Same assay, conditions: post-emergence, 336 h, canada thistle (Cirsium arvense), 14 Days After Application, 140 g ai/ha, read-out: Visual Growth Reduction (%) CIRAR
Compound `COC(=O)c1nc(-c2ccc(C3(C#N)CC3)cc2Cl)c(Cl)cc1Cl` [F238, Methyl 3,5-dichloro-6-(2-chloro-4-(1-cyanocyclopropyl)phenyl)picolinate] has a pest or weed control at 140 g/ha of 60 to 74%.

Same assay, conditions: post-emergence, 336 h, crabgrass (Digitaria sanguinalis), 14 Days After Application, 140 g ai/ha, read-out: Visual Growth Reduction (%) DIGSA
`COC(=O)c1nc(-c2ccc(C3(C#N)CC3)cc2Cl)c(Cl)cc1Cl` [F238, Methyl 3,5-dichloro-6-(2-chloro-4-(1-cyanocyclopropyl)phenyl)picolinate] was tested, and the pest or weed control at 140 g/ha was 60 to 74%.

Same assay, conditions: post-emergence, 336 h, lambsquarters (Chenopodium album), 14 Days After Application, 140 g ai/ha, read-out: Visual Growth Reduction (%) CHEAL
Compound `COC(=O)c1nc(-c2ccc(C3(C#N)CC3)cc2Cl)c(Cl)cc1Cl` [F238, Methyl 3,5-dichloro-6-(2-chloro-4-(1-cyanocyclopropyl)phenyl)picolinate] has a pest or weed control at 140 g/ha of 95 to 100%.

Same assay, conditions: post-emergence, 336 h, redroot pigweed (Amaranthus retroflexus), 14 Days After Application, 140 g ai/ha, read-out: Visual Growth Reduction (%) AMARE
Compound `COC(=O)c1nc(-c2ccc(C3(C#N)CC3)cc2Cl)c(Cl)cc1Cl` [F238, Methyl 3,5-dichloro-6-(2-chloro-4-(1-cyanocyclopropyl)phenyl)picolinate] has a pest or weed control at 140 g/ha of 45 to 59%.

Same assay, conditions: post-emergence, 336 h, wild oat (Avena fatua), 14 Days After Application, 140 g ai/ha, read-out: Visual Growth Reduction (%) AVEFA
For `COC(=O)c1nc(-c2ccc(C3(C#N)CC3)cc2Cl)c(Cl)cc1Cl` [F238, Methyl 3,5-dichloro-6-(2-chloro-4-(1-cyanocyclopropyl)phenyl)picolinate], the pest or weed control at 140 g/ha was 0 to 29%.

Same assay, conditions: post-emergence, 336 h, yellow nutsedge (Cyperus esculentus), 14 Days After Application, 140 g ai/ha, read-out: Visual Growth Reduction (%) CYPES
In the case of `COC(=O)c1nc(-c2ccc(C3(C#N)CC3)cc2Cl)c(Cl)cc1Cl` [F238, Methyl 3,5-dichloro-6-(2-chloro-4-(1-cyanocyclopropyl)phenyl)picolinate], the pest or weed control at 140 g/ha is reported as 0 to 29%.
